Kd and IC50 data for 19 compounds are collected here from patent US20120129842A1, “BISTHIAZOLE INHIBITORS OF PRO-MATRIX METALLOPROTEINASE ACTIVATION” (priority 2010, published 2012).

For assay [1], the target named is proMMP13(1-268) (SEQ ID NO:7) (Homo sapiens, UniProt P45452). Description: ThermoFluor binding assay with proMMP13(1-268). On the set-up: 6xHis (C); made in house. The conditions noted are these: pH 7.0. Put shortly:
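Thermal shift binding with 3.5 μM protein and 25 μM 1,8-ANS in 50 mM HEPES pH 7.0, 100 mM NaCl, 0.001% Tween-20, 2.5 mM MgCl2, 300 μM CaCl2. Samples were heated 40 to 90 °C at 1 °C/min, fluorescence read at 500 nm. Tm shifts across an 11-point DMSO dilution series were fitted with DSC-derived thermodynamic parameters.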
A general note: In DSF a fluorescence change marks the thermal transition of the protein.

The target in assay [2] is T1, proMMP9(20-445;ΔFnII) (SEQ ID NO:6) (Homo sapiens, UniProt P14780, DEL216-390).
T1 construct: start methionine (N); made in house; host or cells: E. coli BL21(DE3) RIL
T1 sequence (P14780 with tags, fused parts or gaps DEL216-390): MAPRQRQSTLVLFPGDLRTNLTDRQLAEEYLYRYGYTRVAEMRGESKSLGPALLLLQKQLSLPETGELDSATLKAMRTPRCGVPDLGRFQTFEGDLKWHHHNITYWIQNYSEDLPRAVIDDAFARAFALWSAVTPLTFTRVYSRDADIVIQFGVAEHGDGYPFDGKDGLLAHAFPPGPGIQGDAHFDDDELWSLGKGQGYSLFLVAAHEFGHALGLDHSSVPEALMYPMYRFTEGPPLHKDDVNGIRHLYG
The experiment in a line: ThermoFluor binding assay with proMMP9(20-445;ΔFnII). Conditions: pH 7.0. Summed up:
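proMMP9(20-445;ΔFnII) at 2.8 μM with 50 μM 1,8-ANS in 50 mM HEPES pH 7.0, 100 mM NaCl, 0.001% Tween-20, 2.5 mM MgCl2, 300 μM CaCl2; compounds serially diluted in DMSO. Heated 40–90 °C at 1 °C/min, fluorescence read at 500±25 nm. Tm fit by standard equations; binding fit using DSC/TF-derived thermodynamic parameters.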

Assay [3] has as its target T2, full-length proMMP9(1-707) (SEQ ID NO:1) (Homo sapiens, UniProt P14780, R574P).
T2 construct: made in house; host or cells: HEK293 (proMMP9, secreted); E. coli (MMP3)
The experiment in a line: proMMP9/MMP3 P126 Activation Assay. In kind it is biochemical. The conditions noted are these: 20 nM proMMP9, 20 nM MMP3, 80 min 37° C. Here is the method: The reaction volume was 50 μL. […] Reactivity of residual MMP3 towards P-126 substrate was minimal under these conditions.

In assay [4] the target is T3, proMMP9(67-444;ΔFnII) (SEQ ID NO:5) (Homo sapiens, UniProt P14780, DEL216-390).
T3 construct: start methionine (N); made in house; host or cells: E. coli BL21(DE3) RIL
T3 sequence (P14780 with tags, fused parts or gaps DEL216-390): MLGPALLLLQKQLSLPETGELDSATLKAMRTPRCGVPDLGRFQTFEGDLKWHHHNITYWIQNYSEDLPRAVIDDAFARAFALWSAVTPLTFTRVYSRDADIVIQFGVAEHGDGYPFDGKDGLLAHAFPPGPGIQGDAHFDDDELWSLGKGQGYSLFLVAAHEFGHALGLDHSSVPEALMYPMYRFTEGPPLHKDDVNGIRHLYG
Description: ThermoFluor binding assay with proMMP9(67-444;ΔFnII). Conditions: pH 7.0. Summed up: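 Thermal shift binding with 3.5 μM proMMP9(67-444;ΔFnII) and 50 μM 1,8-ANS in 50 mM HEPES pH 7.0, 100 mM NaCl, 2.5 mM MgCl2, 300 μM CaCl2, 0.001% Tween-20, with serially diluted compound. Heated 40 to 90° C at 1° C/min; fluorescence-derived Tm fitted using DSC/ThermoFluor thermodynamic parameters.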

Counter-ions that a name gives are not always drawn. A value given as a limit tells only on which side of the number the result lay.

T2 sequence (P14780 20-707 R574P): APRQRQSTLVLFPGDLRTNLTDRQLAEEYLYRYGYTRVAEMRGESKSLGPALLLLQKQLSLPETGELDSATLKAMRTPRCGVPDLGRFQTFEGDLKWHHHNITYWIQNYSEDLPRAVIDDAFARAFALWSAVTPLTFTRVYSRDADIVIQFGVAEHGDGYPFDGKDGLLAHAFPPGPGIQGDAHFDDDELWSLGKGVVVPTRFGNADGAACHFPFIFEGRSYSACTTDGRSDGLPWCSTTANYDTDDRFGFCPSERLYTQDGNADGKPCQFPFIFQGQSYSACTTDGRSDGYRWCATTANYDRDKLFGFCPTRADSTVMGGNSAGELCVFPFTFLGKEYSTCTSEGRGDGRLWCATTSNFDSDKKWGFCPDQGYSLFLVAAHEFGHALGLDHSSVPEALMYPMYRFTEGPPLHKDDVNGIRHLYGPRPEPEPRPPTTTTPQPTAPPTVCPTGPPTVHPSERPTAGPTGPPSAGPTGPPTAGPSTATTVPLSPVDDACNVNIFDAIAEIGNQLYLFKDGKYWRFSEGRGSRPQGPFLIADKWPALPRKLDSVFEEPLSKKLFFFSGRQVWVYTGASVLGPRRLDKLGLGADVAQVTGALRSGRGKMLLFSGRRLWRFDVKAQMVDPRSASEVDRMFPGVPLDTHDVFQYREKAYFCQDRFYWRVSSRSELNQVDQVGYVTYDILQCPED

For `COc1ccc(C(N)=O)cc1Nc1nc(-c2sc(N)nc2C(F)(F)F)cs1` [Example 87, 3-(2′-Amino-4′-trifluoromethyl-[4,5′]bithiazolyl-2-ylamino)-4-methoxy-benzamide.TFA], the Kd (usually the constant that tells how readily two partners part at equilibrium) came out at 3000 nM in assay [1], 400 nM in assay [2] and 380 nM in assay [4]. For the same compound, half-maximal inhibition in assay [3] (IC50) was put at 1200 nM.

Turning to `Cc1nc(N(C)C)sc1-c1csc(Nc2cc(C(N)=O)ccc2OC(C)C)n1` [Example 88, 3-(2′-Dimethylamino-4′-methyl-[4,5′]bithiazolyl-2-ylamino)-4-isopropoxy-benzamide.TFA], the Kd in assay [1] amounted to 950 nM; in assay [2] it was 100 nM; in assay [4] it was 650 nM. In assay [3], the IC50 (in general, the concentration at which inhibition is half-maximal) amounted to 380 nM.

As to `Cc1nc(N2CCOCC2)sc1-c1csc(Nc2cc(C(N)=O)ccc2OC(C)C)n1` [Example 89, 4-Isopropoxy-3-(4′-methyl-2′-morpholin-4-yl-[4,5′]bithiazolyl-2-ylamino)-benzamide.TFA], the equilibrium dissociation constant (Kd) in assay [1] stood at 710 nM; in assay [2], 63 nM; in assay [4], 390 nM. Also, in assay [3], the midpoint of inhibition, the IC50, lay at 330 nM.

With `Cc1nc(N2CCN(C)CC2)sc1-c1csc(Nc2cc(C(N)=O)ccc2OC(C)C)n1` [Example 90, 4-Isopropoxy-3-[4′-methyl-2′-(4-methyl-piperazin-1-yl)-[4,5′]bithiazolyl-2-ylamino]-benzamide.TFA], the Kd in assay [1] is 680 nM; in assay [2], 37 nM; in assay [4], 170 nM. In addition, in assay [3], 100 nM corresponded to half-maximal inhibition (IC50).

Regarding `CCN(CC)c1nc(C)c(-c2csc(Nc3cc(C(N)=O)ccc3OC(C)C)n2)s1` [Example 94, 3-(2′-Diethylamino-4′-methyl-[4,5′]bithiazolyl-2-ylamino)-4-isopropoxy-benzamide.TFA], the Kd was 6100 nM in assay [1], 310 nM in assay [2] and 1700 nM in assay [4]. In assay [3], this compound showed an IC50 of 400 nM.

For `Cc1nc(Nc2cccnc2)sc1-c1csc(Nc2cc(C(N)=O)ccc2OC(C)C)n1` [Example 95, 4-Isopropoxy-3-[4′-methyl-2′-(pyridin-3-ylamino)-[4,5′]bithiazolyl-2-ylamino]-benzamide.TFA], the Kd in assay [1] came out at 4100 nM; in assay [2], 220 nM; in assay [4], 2800 nM. The compound further gave an IC50 in assay [3] of 410 nM.

`Cc1nc(Nc2ccccn2)sc1-c1csc(Nc2cc(C(N)=O)ccc2OC(C)C)n1` [Example 96, 4-Isopropoxy-3-[4′-methyl-2′-(pyridin-2-ylamino)-[4,5′]bithiazolyl-2-ylamino]-benzamide.TFA]: the Kd came out at 16000 nM in assay [1], 280 nM in assay [2] and 3800 nM in assay [4]. In assay [3], this compound registered an IC50 of approximately 5000 nM.

For the compound `Cc1nc(-c2ccncc2)sc1-c1csc(Nc2cc(C(N)=O)ccc2OC(C)C)n1` [Example 98, 4-Isopropoxy-3-(4′-methyl-2′-pyridin-4-yl-[4,5′]bithiazolyl-2-ylamino)-benzamide.TFA], the Kd was 2300 nM in assay [1], more than 95000 nM in assay [2] and 670 nM in assay [4]. This compound returned an IC50 in assay [3] of 620 nM.

`CCOC(=O)c1nc(C)c(-c2csc(Nc3cc(C(N)=O)ccc3OC(C)C)n2)s1` [Example 99, 2-(5-carbamoyl-2-isopropoxy-phenylamino)-4′-methyl-[4,5′]bithiazolyl-2′-carboxylic acid ethyl esterHBr]: the Kd in assay [1] came out at 2400 nM; in assay [2] it was 270 nM; in assay [4], 1100 nM. In assay [3], this compound yielded an IC50 of 590 nM.

As to `Cc1nc(C(=O)O)sc1-c1csc(Nc2cc(C(N)=O)ccc2OC(C)C)n1` [Example 100, 2-(5-Carbamoyl-2-isopropoxy-phenylamino)-4′-methyl-[4,5′]bithiazolyl-2′-carboxylic acid], the Kd in assay [1] came out at 1400 nM; in assay [2], 760 nM; in assay [4], 320 nM. This compound came in with an IC50 in assay [3] of 220 nM.

On to `Cc1nc(C(=O)N2CCN(C)CC2)sc1-c1csc(Nc2cc(C(N)=O)ccc2OC(C)C)n1` [Example 101, 4-Isopropoxy-3-[4′-methyl-2′-(4-methyl-piperazine-1-carbonyl)-[4,5′]bithiazolyl-2-ylamino]-benzamide.TFA], for which the Kd in assay [1] stood at 510 nM; in assay [2], 290 nM; in assay [4] it was 1100 nM. In assay [3], it took 170 nM to reach half-maximal inhibition (IC50).

On to `CCN1CCN(C(=O)c2nc(C)c(-c3csc(Nc4cc(C(N)=O)ccc4OC(C)C)n3)s2)CC1` [Example 102, 3-[2′-(4-Ethyl-piperazine-1-carbonyl)-4′-methyl-[4,5′]bithiazolyl-2-ylamino]-4-isopropoxy-benzamide.TFA], for which the figures for the equilibrium dissociation constant (Kd) in assay [1], in assay [2] and in assay [4] were 660 nM, 700 nM and 730 nM, respectively. In addition, inhibition in assay [3] was half-maximal at 130 nM (IC50).

As to `Cc1nc(C(=O)N2CCN(C(C)C)CC2)sc1-c1csc(Nc2cc(C(N)=O)ccc2OC(C)C)n1` [Example 103, 4-Isopropoxy-3-[2′-(4-isopropyl-piperazine-1-carbonyl)-4′-methyl-[4,5]bithiazolyl-2-ylamino]-benzamide.TFA], the figures for the Kd in assay [1], in assay [2] and in assay [4] were 450 nM, 480 nM and 1000 nM, respectively. In assay [3], this compound had an IC50 of 97 nM.

As for `Cc1nc(C(=O)N2CCCN(C)CC2)sc1-c1csc(Nc2cc(C(N)=O)ccc2OC(C)C)n1` [Example 104, 4-Isopropoxy-3-[4′-methyl-2′-(4-methyl-[1,4]diazepane-1-carbonyl)-[4,5′]bithiazolyl-2-ylamino]-benzamide.TFA], the Kd in assay [1] was determined as 530 nM; in assay [2] it was 460 nM; in assay [4] it was 610 nM. In assay [3], this compound displayed an IC50 of 130 nM.

Regarding `Cc1nc(C(=O)N(C)C)sc1-c1csc(Nc2cc(C(N)=O)ccc2OC(C)C)n1` [Example 106, 2-(5-Carbamoyl-2-isopropoxy-phenylamino)-4′-methyl-[4,5′]bithiazolyl-2′-carboxylic acid dimethylamide.TFA], the Kd was 2200 nM in assay [1], 1200 nM in assay [2] and 500 nM in assay [4]. The compound also had an IC50 in assay [3] of 910 nM.

In the case of `Cc1nc(C(=O)N(C)CCN(C)C)sc1-c1csc(Nc2cc(C(N)=O)ccc2OC(C)C)n1` [Example 107, 2-(5-Carbamoyl-2-isopropoxy-phenylamino)-4′-methyl-[4,5′]bithiazolyl-2′-carboxylic acid (2-dimethylamino-ethyl)-methyl-amide.TFA], the Kd was 540 nM in assay [1], 200 nM in assay [2] and 520 nM in assay [4]. Also, the IC50 in assay [3] amounted to 150 nM.

Turning to `Cc1nc(C(=O)N2CCN(C3CCCCC3)CC2)sc1-c1csc(Nc2cc(C(N)=O)ccc2OC(C)C)n1` [Example 108, 3-[2′-(4-Cyclohexyl-piperazine-1-carbonyl)-4′-methyl-[4,5′]bithiazolyl-2-ylamino]-4-isopropoxy-benzamide.TFA], the Kd is 320 nM in assay [1], 310 nM in assay [2] and more than 95000 nM in assay [4]. The compound also gave an IC50 in assay [3] of 1700 nM.

For the compound `Cc1nc(C(=O)N2CCN(c3ccc(C(F)(F)F)cn3)CC2)sc1-c1csc(Nc2cc(C(N)=O)ccc2OC(C)C)n1` [Example 109, 4-Isopropoxy-3-{4′-methyl-2′-[4-(5-trifluoromethyl-pyridin-2-yl)-piperazine-1-carbonyl]-[4,5′]bithiazolyl-2-ylamino}-benzamide.TFA], the Kd in assay [1] was more than 95000 nM; in assay [2] it was 3800 nM; in assay [4], more than 95000 nM. In assay [3], the IC50 was 5700 nM.

As to `Cc1nc(C(=O)N2CCC(N(C)C)CC2)sc1-c1csc(Nc2cc(C(N)=O)ccc2OC(C)C)n1` [Example 110, 3-[2′-(4-Dimethylamino-piperidine-1-carbonyl)-4′-methyl-[4,5]bithiazolyl-2-ylamino]-4-isopropoxy-benzamide.TFA], the Kd in assay [1] amounted to 690 nM; in assay [2], 130 nM; in assay [4] it was 480 nM. Besides, the IC50 in assay [3] was determined as 200 nM.
